“Also recorded” adds a separate entry of the source. Peptide text beside a SMILES is read from it. * marks the point of attachment. Cbz = O=C(OCc1ccccc1)*
Tests used:
[1] = system: PR-A; experiment: Inhibition of proteasome degradation: PR-A and ERα levels in T47D cells with siLuc or siBRCA1 (western blotting); type: cell-based, human
Procedure: To further test whether BRCA1 specifically affects PR stability, adenoviral siRNA-mediated knockdown of BRCA1 was introduced to T47D cells. […] In the absence of a ligand, PR-A was very stable and no significant differences were detected between siLuc and siBRCA1 knockdown cells (FIG. 3A, lanes 5, 6). The amount of PR-B was analyzed by immunoprecipitation followed by western blot (FIG. 8). Depletion of BRCA1 by adenoviral siRNA led to PR-A and PR-B accumulation.
(§1) One day after plating, proliferating sub-confluent MECs or T47D cells were treated with 10 μM MG132 (BioMol Research Laboratories, Plymouth Meeting, Pa.) for 4 hr. Vehicle DMSO was added to the medium of untreated control cells. For the half-life study, 100 μg/ml of cyclohexamide (Sigma) was used and cells were harvested 0-6 hours after the addition of cyclohexamide. Cells were washed in PBS and protein lysates were prepared as described above.

[2] = system: PR-A; experiment: Inhibition of proteasome degradation: PR protein level in mouse MECs (western blotting); type: cell-based; details: 10 μM MG132 for 4 hr
Text: (§2) MEC cultures from BRCA1^Δ11p53^Δ5&6 and p53^Δ5&6 mammary glands of two-month-old mice when MECs are histologically normal were created. The amount of PR protein, determined by western blotting, was 3-fold higher in BRCA1^Δ11p53^Δ5&6 than in p53^Δ5&6 MECs (FIG. 2D, lanes 1, 3). To further establish that PR protein stability is modulated by a proteasome pathway, MECs were exposing to MG132. PR-A was stabilized in p53^Δ5&6 but not in BRCA1^Δ11p53^Δ5&6 MECs (FIG. 2D, lanes 2, 4).
as §1

[3] = system: mammary epithelial cells (MECs); experiment: Hormone-induced proliferation of mammary epithelial cells in ovariectomized mice (BrdU incorporation); type: in vivo, mouse; details: 1 mg progesterone daily for 3 days
Procedure: MEC proliferation peaks at the estrous phase when progesterone level is highly elevated. To assess the contribution of steroid hormones to MECs proliferation an ovariectomy was performed to deplete circulating estrogen and progesterone. Since PR is one of the downstream target genes of ER, progesterone activity was targeted. Two weeks after ovariectomy mice were treated with progesterone daily for 3 days followed by BrdU pulse labeling. In control vehicle treated mice, no BrdU-positive MECs were found in ovariectomized wt, and p53^Δ5&6 gland, but ducts containing one or two BrdU-positive cells were detected in BRCA1^Δ11p53^Δ5&6 mammary glands (FIG. 2A). Elevated proliferation seen under ovarian hormone depletion is related to the ligand-independent activation of PR in BRCA1-deficient cells. Importantly, a higher number of BrdU-positive MECs was found in BRCA1^Δ11p53^Δ5&6 mammary glands upon exposure to progesterone; ducts containing up to 6 BrdU-positive cells were identified (FIG. 2A).
Two weeks before steroid hormone treatment animals were bilaterally ovariectomized Mammary glands were stimulated to proliferate with daily subcutaneous injections of either 1 μg of estradiol (E2758, Sigma, St. Louis, Mo.) or 1 mg of progesterone (P8783, Sigma, St. Louis, Mo.) for 3 days. Untreated mice were used as controls.

[4] = molecular target: T1, PR (Homo sapiens, UniProt P06401); details: cited from earlier work
T1 sequence (P06401 1-933): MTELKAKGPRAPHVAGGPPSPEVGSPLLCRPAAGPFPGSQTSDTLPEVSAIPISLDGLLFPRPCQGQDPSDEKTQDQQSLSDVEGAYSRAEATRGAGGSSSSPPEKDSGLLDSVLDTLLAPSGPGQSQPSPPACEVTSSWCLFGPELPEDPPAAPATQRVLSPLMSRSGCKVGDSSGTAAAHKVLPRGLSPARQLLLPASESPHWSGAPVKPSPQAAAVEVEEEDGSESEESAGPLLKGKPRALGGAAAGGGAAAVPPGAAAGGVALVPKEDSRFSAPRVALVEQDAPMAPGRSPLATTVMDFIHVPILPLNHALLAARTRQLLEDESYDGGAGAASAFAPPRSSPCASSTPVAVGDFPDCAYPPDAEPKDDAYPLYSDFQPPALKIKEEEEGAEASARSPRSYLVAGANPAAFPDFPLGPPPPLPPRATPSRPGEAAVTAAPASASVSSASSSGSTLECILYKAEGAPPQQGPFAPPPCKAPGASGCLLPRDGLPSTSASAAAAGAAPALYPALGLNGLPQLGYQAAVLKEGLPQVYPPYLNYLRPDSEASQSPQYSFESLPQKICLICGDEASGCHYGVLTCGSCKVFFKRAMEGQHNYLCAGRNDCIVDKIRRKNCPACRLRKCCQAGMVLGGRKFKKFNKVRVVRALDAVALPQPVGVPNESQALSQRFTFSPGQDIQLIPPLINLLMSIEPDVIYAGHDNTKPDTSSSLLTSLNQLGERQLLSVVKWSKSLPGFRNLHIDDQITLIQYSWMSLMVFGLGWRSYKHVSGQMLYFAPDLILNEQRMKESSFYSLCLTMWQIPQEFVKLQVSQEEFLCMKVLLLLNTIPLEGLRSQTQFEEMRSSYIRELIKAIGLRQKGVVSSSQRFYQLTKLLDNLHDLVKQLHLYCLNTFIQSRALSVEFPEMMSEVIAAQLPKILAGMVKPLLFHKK

[5] = system: BRCA1^Δ11p53^Δ5&6 conditional knockout mice (mammary tumors); experiment: Pellet implantation and weekly monitoring for mammary tumor formation in BRCA1/p53 deficient mice; type: in vivo, mouse; details: for mammary tumorigenesis / tumor formation (in words): 35 mg/60 day constant release pellet
Procedure: (§3) As progesterone is a potent mitogen for BRCA1^Δ11p53^Δ5&6 MECs specifically it was tested whether blocking PR signaling by anti-progesterone will prevent or delay mammary carcinogenesis in BRCA1^Δ11p53^Δ5&6 conditional knockout mice. An anti-progesterone pellet containing 35 mg/60 days constant release mifepristone or placebo pellet was implanted into twelve 3- and two 4-month-old mice. Mice were monitored weekly for tumor formation. The median tumor latency of BRCA1^Δ11p53^Δ5&6 conditional knockout mice was 6.6 months (n=25) with complete penetrance (FIG. 4A). All control mice or placebo pellet treated mice developed palpable tumor by 8.7 or 5.2 months of ages (n=4), respectively. […] The effects of on ductal branching and alveolar expansion were determined using mammary gland whole mounts and histological sections. […] Only 33±7 ducts in an approximate area of 0.012 mm^2 were identified in-treated mice while 678±49 ducts were found in placebo pellet-treated mice. Dramatic inhibition of tumorigenesis was also seen with the implantation of 35 mg time release (60 day) pellets of CDB-2914. […] CDB-2914 shares structural similarity with mifepristone and binds competitively to PR with high affinity.
Nulliparous mature BRCA1^Δ11/p53^Δ5&6 female mice, age 14-20 weeks, were anesthetized and pellets containing either 35 mg/60-day constant release of mifepristone (M8046, Sigma, St. Louis, Mo.) or placebo pellets (Innovative Research of America, Sarasota, Fla.) were implanted in the lateral side of the neck. Mice were monitored weekly for mammary tumors.
This Example describes the early administration of Progesterone Receptor antagonists to mice with a BRCA1 mutation to prevent or delay the development of tumors.
An effective development window for prevention treatment has also been shown for RU-486 (data not shown). I would appear that the time window for treatment is important.

[6] = system: BRCA1^Δ11p53^Δ5&6 mammary glands; experiment: Mammary gland whole mounts and histological sections: ductal branching and alveolar expansion; type: in vivo, mouse
Procedure: as §3
The mammary gland was removed and flattened on paraffin paper and fixed in Carnoy's fixative (60% of absolute ethanol, 30% CHCl3, 10% HOAc) for 3 hr. It was subsequently hydrated through a series of solutions with decreasing concentrations of ethanol, and stained in carmine solution (1 g carmine, 2.5 g aluminum potassium sulfate/500 ml of water) overnight. The gland was dehydrated through a series of solutions with increasing ethanol concentrations, 50-100%, washed in xylene twice, and mounted on a slide.

[7] = system: BRCA1^Δ11p53^Δ5&6 conditional knockout mice (mammary tumors); experiment: Pellet implantation and weekly monitoring for mammary tumor formation in BRCA1/p53 deficient mice; type: in vivo, mouse; details: 5 mg/60 days constant release pellet
[8] = molecular target: T2, PR-A (Mus musculus, UniProt Q00175); experiment: Determination of PR half-life in MECs with cyclohexamide and R5020; type: cell-based; details: 10 nM R5020, 100 μg/ml cyclohexamide
T2 construct: endogenous in cells; host or cells: primary mouse mammary epithelial cells (MECs) from p53 and BRCA1/p53 conditional knockout mammary glands
T2 sequence (Q00175 1-761 isoform Q00175-2): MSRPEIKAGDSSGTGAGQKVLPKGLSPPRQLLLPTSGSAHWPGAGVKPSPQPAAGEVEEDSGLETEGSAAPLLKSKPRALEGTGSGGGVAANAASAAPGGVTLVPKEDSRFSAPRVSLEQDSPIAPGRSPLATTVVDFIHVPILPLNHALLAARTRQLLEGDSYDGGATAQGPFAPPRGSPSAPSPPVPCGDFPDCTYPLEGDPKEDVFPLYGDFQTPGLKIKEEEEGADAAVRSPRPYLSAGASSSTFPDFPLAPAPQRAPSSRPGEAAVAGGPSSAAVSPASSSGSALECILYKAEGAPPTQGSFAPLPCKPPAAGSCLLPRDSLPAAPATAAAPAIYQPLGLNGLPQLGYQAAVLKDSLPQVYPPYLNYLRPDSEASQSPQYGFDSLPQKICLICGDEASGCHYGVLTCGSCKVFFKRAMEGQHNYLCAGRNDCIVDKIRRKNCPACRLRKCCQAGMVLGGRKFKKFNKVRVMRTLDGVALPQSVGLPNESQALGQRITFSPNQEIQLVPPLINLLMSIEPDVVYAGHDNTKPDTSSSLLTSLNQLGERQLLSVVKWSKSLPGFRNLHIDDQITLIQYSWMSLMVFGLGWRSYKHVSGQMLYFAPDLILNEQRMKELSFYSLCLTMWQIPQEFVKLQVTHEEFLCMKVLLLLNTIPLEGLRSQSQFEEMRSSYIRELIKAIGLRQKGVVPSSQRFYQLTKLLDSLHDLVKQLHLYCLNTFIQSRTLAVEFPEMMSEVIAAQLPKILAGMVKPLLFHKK
Text: as §2, §1

[9] = system: BRCA1^Δ11p53^Δ5&6 mammary glands; experiment: Immunostaining for cleaved caspase 3 in treated mammary glands; type: in vivo, mouse; details: 3 wk or 5 wk post pellet implantation

CC(C)C[C@@H](C=O)NC(=O)[C@H](CC(C)C)NC(=O)[C@H](CC(C)C)NC(=O)OCc1ccccc1 [MG132] (Cbz-Leu-Leu-Leu-aldehyde)
PR-A density (western blot) ([1]; control siLuc infected cells, with R5020, 1.0 without MG132): 3.8 | PR-A density (western blot) ([1]; siBRCA1 infected cells, with R5020, 3.2 without MG132): 3.6 | ERα stabilization ([1]; siLuc or siBRCA1 knockdown cells): stabilized to a similar extent | PR-A stabilization ([2]; BRCA1^Δ11p53^Δ5&6 MECs): not | PR-A stabilization ([2]; p53^Δ5&6 MECs): stabilized

CC(=O)[C@H]1CC[C@H]2[C@@H]3CCC4=CC(=O)CC[C@]4(C)[C@H]3CC[C@]12C [progesterone]
BrdU-positive cells per duct ([3]; BRCA1^Δ11p53^Δ5&6 mammary glands): up to 6 | BrdU-positive cells in the majority of MECs ([3]; wt or p53^Δ5&6 mammary gland): did not contain BrdU-positive cells

CC(=O)O[C@]1(C(C)=O)CC[C@H]2[C@@H]3CCC4=CC(=O)CCC4=C3[C@@H](c3ccc(N(C)C)cc3)C[C@@]21C [CDB-2914, 17α-acetoxy-11β-(4-N,N-dimethylaminophenyl)-19-norpregna-4,9-diene-3,20-dione]
other receptor properties [4]: anti-glucorcorticoid and anti-androgen properties | binding to PR ([4]; competitive): high affinity | inhibition of tumors compared to control implants ([5]; 35 mg time release (60 day) pellet, BRCA1/p53 deficient mice, age 14 weeks, n=4): 100% | mammary tumorigenesis / tumor formation (in words) ([5]; BRCA1/p53 deficient mice): has a preventative effect; also recorded: inhibits mammary tumorigenesis; also recorded: effective in delaying mammary tumors | development of palpable tumors ([5]; two-month-release pellet implanted before 14 weeks of age, n=4): delayed development of palpable tumors | development of palpable tumors ([5]; two-month-release pellet placed after 15 wks): failed to do so | ductal branching of the mammary gland ([6]; Brca1^f/fp53^f/fCrec mouse, 7.0-month-old, 35 mg/60 day pellet at 14-wk-old): inhibits ductal branching | efficacy in tumor prevention (in words) [7]: failed to show any efficacy

CCC(=O)[C@@]1(C)CC[C@H]2[C@@H]3CCC4=CC(=O)CCC4=C3CC[C@@]21C [R5020]
PR-A present at 6 hr post R5020 treatment ([8]; BRCA1^Δ11p53^Δ5&6 MECs): 90% | half-life of PR-A ([8]; p53^Δ5&6 MECs): 2.8 h

CC#C[C@]1(O)CC[C@H]2[C@@H]3CCC4=CC(=O)CCC4=C3[C@@H](c3ccc(N(C)C)cc3)C[C@@]21C [mifepristone]
apoptotic cells (cleaved caspase 3) [9]: few apoptotic cells | mammary tumorigenesis / tumor formation (in words) ([5]; BRCA1/p53 deficient mice): effective prevention of tumor formation; also recorded: prevents tumorigenesis; also recorded: inhibits mammary tumorigenesis | palpable tumors at 12 months of age ([5]; 35 mg/60 days constant release pellet implanted at 3-4 months, n=14, BRCA1^Δ11p53^Δ5&6 mice): no palpable tumors were detected | side branches of mammary glands ([6]; five weeks of treatment, 35 mg/60-day pellet): substantial reduction | ducts in an approximate area of 0.012 mm^2 ([6]; five weeks of treatment, 35 mg/60-day pellet, placebo 678±49): 33±7 ducts

Reference: patent US9517240B2, “Methods and compositions for cancer prevention and treatment” (THE REGENTS OF THE UNIVERSITY OF CALIFORNIA, priority 2006, dated 2016)
